According to paper PMC6373673, “Purified PEGylated human glucagon-like peptide-2 reduces the severity of irradiation-induced acute radiation enteritis in rats” (Journal of Radiation Research, 2018):

What was measured:
[1] = test system: irradiation-induced acute radiation enteritis in rats; experiment: Clinical, gross, histological and morphometric changes of the small intestine in irradiation-induced acute radiation enteritis; type: in vivo, Sprague Dawley (SD) rats; parameters: key to Shortening of villi (histologic) / Architectural disarray (histologic) / Diarrhea / Abdominal distention / Intestinal dilatation (gross) / Mucosal ulceration (gross) / Edema (gross): (–) = absent; (+) = present; Number of villi: unit not given here; settings: SD rats, 8 Gy abdominal X-ray; for Abdominal distention / Architectural disarray (histologic) / Diarrhea / Edema (gross) / Intestinal dilatation (gross) / Mucosal ulceration (gross) / Shortening of villi (histologic): killed 48 h after; for Protection against radiation-induced intestinal injury (villi integrity, histology): i.p. pretreatment 5 min before irradiation, result in words
Description: (§1) Sixty adult male Sprague Dawley (SD) rats weighing 220–250 g were included in our study. Rats were subjected to 1 week of preliminary conditioning, during which time they received standard pellet rat chow and water ad libitum. They were housed in a temperature-and humidity-controlled environment, two animals per cage, with a 12-h light/12-h dark cycle. The Principles of Laboratory Animal Care (NIH Publication 85e23, revised 1996) were followed. Animal study protocols were approved by the Ethics Committee of the Fourth Military Medical University. The experiment was carried out at the Department of Pharmacy, Tangdu Hospital, Fourth Military Medical University.
(§2) X-ray irradiation was performed using a linear accelerator (Siemens primask) adjusted to provide X-ray irradiation, and carried out at the Department of Radiology and Oncology at the Tangdu Hospital. All of the animals were anesthetized with an intramuscular injection of pentobarbital sodium (100 mg/kg) and subjected to a single dose of 8 Gy abdominal X-radiation. The dose was delivered at a rate of 400 monitor units/min (1100 rad, 116.5 cGy/min, 100 cm source–skin distance) using a conventional radiation source, while the other parts of the body were carefully shielded.
(§3) Rats were randomized into six groups (Groups A–F). […] The remaining rats were subjected to a single dose of 8 Gy of abdominopelvic X-radiation and randomized further into five groups (Groups B–F). […] Briefly, rats were anesthetized with 100 mg/kg pentobarbital sodium, positioned supine, and subjected to a single fraction of 8 Gy delivered at a specific depth through abdominopelvic fields using X-rays at the rate of 0.74 Gy/min, while the other parts of the body were carefully shielded. Radiated rats were allowed to recover from the anesthetic and GLP-2 or Mono-PEG-hGLP-2 was administered by intraperitoneal injection. • Group A: non-X-ray irradiated (control). • Group B: X-ray irradiated. • Group C: pretreated with 3 μg of Mono-PEG-hGLP-2 in 0.3 ml of saline 5 min before X-ray irradiation. • Group D: pretreated with 10 μg of Mono-PEG-hGLP-2 in 0.3 ml of saline 5 min before X-ray irradiation. • Group E: pretreated with 30 μg of Mono-PEG-hGLP-2 in 0.3 ml of saline 5 min before X-ray irradiation. • Group F: pretreated with 30 μg of GLP-2 in 0.3 ml of saline 5 min before X-ray irradiation.
Animals were killed 48 h after X-ray irradiation, and laparotomies were performed. Immediately after the laparotomy, the small intestine (jejunum) was examined and removed. Two-centimeter segments of the jejunum and segments of the intestine showing edema and change in color (purple) were resected. Luminal contents were washed with 0.9% NaCl by injecting saline through the lumen of the small bowel segments. Tissue samples were pinned out on a paraffin block and floated upside down in 10% buffered formalin overnight, dehydrated, and embedded in paraffin. Sections of 4 μm were cut with a Leica sliding microtome (SM 2000R, Nussbach, Germany) and slides, containing a minimum of 10 sections, were stained with hematoxylin and erosin stains. Some representative intestine sections were processed for ultrastructural studies. Sections were evaluated quantitatively and qualitatively in a blinded fashion.
For histological assessment, villous height (from the base to the tip of the villi), crypt height (from the base to the tip of each crypt), and the number of villi per square millimeter was determined based on individual intestinal segments at five separate microscopic fields for each animal. They were recorded as the mean values using ocular micrometer-adapted light microscopy at a magnification of ×100.

[2] = test system: oxidative stress markers (MDA, SOD, GSH, GSH-Px) in the small intestine; experiment: Intestinal MDA, SOD, GSH and GSH-Px (commercial assay kits) after X-ray irradiation; type: in vivo, Sprague Dawley (SD) rats; settings: SD rats, 8 Gy abdominal X-ray; for Intestinal GSH-Px activity / Intestinal SOD activity / Intestinal content of GSH / Intestinal content of MDA: small intestine 48 h after, mean ± S.D., n = 10
Description: as §1, §2, §3
(§4) Malondialdehyde (MDA) levels, glutathione (GSH) content, and the activities of super oxide-dismutase (SOD) and glutathione peroxidase (GPx) were determined in the small intestine using commercial assay kits (Biyuntian Co., China) according to the manufacturer’s protocols. The protein content ratio was determined by Pierce™ BCA Protein Assay Kit (Thermo Fisher Scientific Inc., Rockford, IL, USA). All of the values were normalized to total intestinal protein. Small intestine tissue (20 mg) was homogenized in lysis buffer (150 mM NaCl, 0.1% SDS, 0.1% NP-40, 20 mM Tris-HCl pH 7.5) and protease inhibitor cocktail using a Tissue Lyser II homogenizer (Qiagen; Hilden, Germany). Total protein concentrations of tissue homogenates were detected by a Pierce™ BCA Protein Assay Kit (Thermo Scientific; Rockford, IL, USA). The levels of tumor necrosis factor-alpha (TNF-α) (Invitrogen; Carlsbad, CA, USA) and interleukin-2 (IL-2) (Bioo Scientific; Austin, TX, USA) in the tissue samples were determined using commercially available sandwich ELISA kits, according to the protocol recommended by the manufacturer. Results were recorded as the ratio of detected protein (TNF-α, IL-2) (pg/ml) to the amount of total protein (mg/ml).

[3] = test system: TNF-α; experiment: Intestinal TNF-α by sandwich ELISA after X-ray irradiation; type: in vivo, Sprague Dawley (SD) rats; settings: SD rats, 8 Gy abdominal X-ray, small intestine homogenate 48 h after, mean ± S.D., n = 10
Description: as §1, §2
Rats were randomized into six groups (Groups A–F). […] The remaining rats were subjected to a single dose of 8 Gy of abdominopelvic X-radiation and randomized further into five groups (Groups B–F). […] Briefly, rats were anesthetized with 100 mg/kg pentobarbital sodium, positioned supine, and subjected to a single fraction of 8 Gy delivered at a specific depth through abdominopelvic fields using X-rays at the rate of 0.74 Gy/min, while the other parts of the body were carefully shielded. […]
as §4, with “All of the values were normalized to total intestinal protein. Small intestine tissue (20 mg) was homogenized in lysis buffer (150 mM NaCl, 0.1% SDS, 0.1% NP-40, 20 mM Tris-HCl pH 7.5) and protease inhibitor cocktail using a Tissue Lyser II homogenizer (Qiagen; Hilden, Germany).” left out

[4] = GLP-2 in vivo, introduction statement, no reference given; cited from earlier work
Description: Glucagon-like peptide-2 (GLP-2) is a 33-amino acid peptide derived from the post-translational processing of proglucagon in enteroendocrine L-cells and cerebral neurons. GLP-2 exerts diverse effects related to the regulation of gastrointestinal growth and function, including stimulation of mucosal growth, inhibition of apoptosis, increased nutrient absorption, inhibition of gastric emptying and gastric acid secretion, reduction of intestinal permeability, stimulation of intestinal blood flow, and relaxation of intestinal smooth muscle. GLP-2 h ...

[5] = test system: NF-κB; experiment: NF-κB expression in intestine (immunohistochemistry and Western blot) after X-ray irradiation; type: in vivo, Sprague Dawley (SD) rats; settings: SD rats, 8 Gy abdominal X-ray
Description: as §1, §2
Rats were randomized into six groups (Groups A–F). […]
The expression of NF-κB was analyzed by Western blotting. […]

[6] = 30 μg i.p. 5 min before irradiation, jejunum 48 h after, five microscopic fields per animal, ×100, mean ± SD
[7] = 30 μg i.p. in 0.3 ml saline 5 min before irradiation
[8] = 30 μg i.p. 5 min before irradiation
[9] = 3 μg i.p. 5 min before irradiation, jejunum 48 h after, five microscopic fields per animal, ×100, mean ± SD
[10] = 3 μg i.p. in 0.3 ml saline 5 min before irradiation
[11] = 10 μg i.p. in 0.3 ml saline 5 min before irradiation
[12] = 3 μg i.p. 5 min before irradiation
[13] = 10 μg i.p. 5 min before irradiation

CC[C@H](C)[C@H](NC(=O)[C@H](Cc1ccccc1)NC(=O)[C@H](CC(=O)O)NC(=O)[C@H](CCCNC(=N)N)NC(=O)[C@H](C)NC(=O)[C@H](C)NC(=O)[C@H](CC(C)C)NC(=O)[C@H](CC(N)=O)NC(=O)[C@H](CC(=O)O)NC(=O)[C@H](CC(C)C)NC(=O)[C@@H](NC(=O)[C@@H](NC(=O)[C@H](CC(N)=O)NC(=O)[C@H](CCSC)NC(=O)[C@H](CCC(=O)O)NC(=O)[C@H](CC(=O)O)NC(=O)[C@H](CO)NC(=O)[C@H](Cc1ccccc1)NC(=O)[C@H](CO)NC(=O)CNC(=O)[C@H](CC(=O)O)NC(=O)[C@H](C)NC(=O)[C@@H](N)Cc1c[nH]cn1)[C@@H](C)O)[C@@H](C)CC)C(=O)N[C@@H](CC(N)=O)C(=O)N[C@@H](Cc1c[nH]c2ccccc12)C(=O)N[C@@H](CC(C)C)C(=O)N[C@H](C(=O)N[C@@H](CCC(N)=O)C(=O)N[C@H](C(=O)N[C@@H](CCCCN)C(=O)N[C@H](C(=O)N[C@H](C(=O)N[C@@H](CC(=O)O)C(N)=O)[C@@H](C)O)[C@@H](C)CC)[C@@H](C)O)[C@@H](C)CC [GLP-2, hGLP-2(1–33) amide, reference compound]
Crypt height [1, 6]: 113.8 ± 10.9 μm
Height of villi [1, 6]: 229.7 ± 15.9 μm
Number of villi [1, 6]: 32.1 ± 4.1
Abdominal distention [1, 7]: +
Architectural disarray (histologic) [1, 7]: +
Diarrhea [1, 7]: +
Edema (gross) [1, 7]: +
Intestinal dilatation (gross) [1, 7]: +
Mucosal ulceration (gross) [1, 7]: +
Shortening of villi (histologic) [1, 7]: +
Protection against radiation-induced intestinal injury (villi integrity, histology) [1]: did not protect mice against radiation-induced intestinal injury
Protective effect on intestinal antioxidant enzymes and inflammatory factors ([2]; 30 μg i.p. 5 min before irradiation, result in words): no significant protective effect
Intestinal GSH-Px activity [2, 8]: 246.1 ± 37.8 U/mg prot
Intestinal SOD activity [2, 8]: 35.27 ± 4.66 U/mg prot
Intestinal content of GSH [2, 8]: 18.22 ± 3.44 mg/g prot
Intestinal content of MDA [2, 8]: 5.51 ± 0.47 nmol/mg prot
Intestinal content of TNF-α [3, 8]: 9.78 ± 1.06 pg/mg prot
plasma half-life [4]: 7 min

Mono-PEG-hGLP-2: human GLP-2 peptide conjugated to one 5 kDa mPEG chain by reaction with mPEG5k-SPA
Crypt height [1, 9]: 121.6 ± 6.3 μm
Height of villi [1, 9]: 268.1 ± 11.6 μm
Abdominal distention [1, 10]: +
Architectural disarray (histologic) [1, 10]: +
Diarrhea [1, 10]: –
Edema (gross) [1, 10]: +
Intestinal dilatation (gross) [1, 10]: +
Mucosal ulceration (gross) [1, 10]: +
Shortening of villi (histologic) [1, 10]: +
Height of villi ([1]; 10 μg i.p. 5 min before irradiation, jejunum 48 h after, five microscopic fields per animal, ×100, mean ± SD): 437.1 ± 19.4 μm
Abdominal distention [1, 11]: –
Architectural disarray (histologic) [1, 11]: –
Diarrhea [1, 11]: –
Edema (gross) [1, 11]: +
Intestinal dilatation (gross) [1, 11]: –
Mucosal ulceration (gross) [1, 11]: –
Shortening of villi (histologic) [1, 11]: +
Crypt height [1, 6]: 188.5 ± 8.3 μm
Height of villi [1, 6]: 507.9 ± 21.1 μm
Abdominal distention [1, 7]: –
Architectural disarray (histologic) [1, 7]: –
Diarrhea [1, 7]: –
Edema (gross) [1, 7]: –
Intestinal dilatation (gross) [1, 7]: –
Mucosal ulceration (gross) [1, 7]: –
Shortening of villi (histologic) [1, 7]: –
Protection against radiation-induced intestinal injury (villi integrity, histology) [1]: markedly protected the integrity of the villi and preserved the villous height
Intestinal GSH-Px activity [2, 12]: 331.2 ± 22.1 U/mg prot
Intestinal SOD activity [2, 12]: 40.47 ± 5.41 U/mg prot
Intestinal content of GSH [2, 12]: 20.22 ± 4.87 mg/g prot
Intestinal content of MDA [2, 12]: 5.27 ± 0.44 nmol/mg prot
Intestinal GSH-Px activity [2, 13]: 367.5 ± 42.3 U/mg prot
Intestinal SOD activity [2, 13]: 47.45 ± 8.24 U/mg prot
Intestinal content of GSH [2, 13]: 24.70 ± 10.22 mg/g prot
Intestinal content of MDA [2, 13]: 4.48 ± 0.37 nmol/mg prot
Intestinal GSH-Px activity [2, 8]: 412.7 ± 65.7 U/mg prot
Intestinal SOD activity [2, 8]: 56.11 ± 6.01 U/mg prot
Intestinal content of GSH [2, 8]: 24.01 ± 4.17 mg/g prot
Intestinal content of MDA [2, 8]: 4.01 ± 0.22 nmol/mg prot
Intestinal content of TNF-α [3, 12]: 7.68 ± 0.77 pg/mg prot
Intestinal content of TNF-α [3, 13]: 6.12 ± 1.01 pg/mg prot
Intestinal content of TNF-α [3, 8]: 4.78 ± 0.67 pg/mg prot
NF-κB staining in intestine versus X-ray-alone-treated rats ([5]; 3, 10, 30 μg i.p. 5 min before irradiation, immunohistological staining): decreased NF-κB staining in a dose-dependent manner
NF-κB expression in intestine versus model ([5]; moderate to high doses (10, 30 μg i.p.) before irradiation, P < 0.01): significantly inhibited NF-κB expression
